Measurements as given in patent publication US20250179059A1 (The Regents of the University of California, priority 2021, published 2025).

Assays:
[1] = target: T1, human BRD4 bromodomain II (Homo sapiens, UniProt O60885); experiment: Bromodomain binding assay (AlphaScreen), BRD4 BDII; details: AlphaScreen assay, Table C2; read-out: BRD4 BDII IC50
T1 construct: human BRD4 bromodomain II [based on Genbank NM_058243, residues 349-460]; host or cells: E. coli
Outline: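 Compounds (10-point, 3-fold series) were preincubated 30 min at room temperature with E. coli-expressed N-terminal His6-tagged BRD4 BDII (residues 349-460) or BDI (residues 44-170) in 50 mM HEPES pH 7.5, 100 mM NaCl, 0.05% CHAPS, 0.1% BSA, 1% DMSO. Displacement of biotinylated tetra-acetylated H4 1-21 peptide was read by AlphaScreen; IC50 from curve fitting.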

[2] = tested on: human SKM-1 acute myeloid leukemia cells; experiment: SKM-1 antiproliferation cell-based assay (ATPlite); details: Homo sapiens, SKM-1, 96 h, SKM-1 antiproliferation assay, 4 days, Table C2
Outline: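 Log-phase cells in RPMI 1640/15% FBS were seeded at 34722 cells/mL and exposed for 4 days to nine-concentration DMSO serial dilutions in triplicate. Viability was read as ATP luminescence (ATPlite 1step), and IC50 values came from variable-slope non-linear regression.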

IC50 [1] [nM]	GI50 [2] [nM]	Compound
0.01 to 1	0.3 to 30	C[C@@H]1CN(c2cc(-c3cc(F)cc(-c4ccc(-n5ccn(C)c5=O)c(Cl)c4)c3O)cnn2)CCN1 [Example 650, (R)-1-(3-chloro-5′-fluoro-2′-hydroxy-3′-(6-(3-methylpiperazin-1-yl)pyridazin-4-yl)-[1,1′-biphenyl]-4-yl)-3-methyl-1H-imidazol-2(3H)-one]
0.01 to 1	300 to 3000	Cn1ccn(-c2ccc(-c3cc(F)cc(-c4ccnc(N5CCN[C@H](CC(=O)O)C5)c4)c3O)cc2Cl)c1=O [Example 653]
0.01 to 1	0.3 to 30	Cn1ccn(-c2ccc(-c3cc(F)cc(-c4ccnc(N5CC6CCNC6C5)c4)c3O)cc2Cl)c1=O (stereo not drawn) [Example 655, 1-(3-chloro-5′-fluoro-3′-(2-(hexahydropyrrolo[3,4-b]pyrrol-5(1H)-yl)pyridin-4-yl)-2′-hydroxy-[1,1′-biphenyl]-4-yl)-3-methyl-1H-imidazol-2(3H)-one]
0.01 to 1	0.3 to 30	CN1CCC2CN(c3cc(-c4cc(F)cc(-c5ccc(-n6ccn(C)c6=O)c(Cl)c5)c4O)ccn3)CC21 (stereo not drawn) [Example 658, 1-(3-chloro-5′-fluoro-2′-hydroxy-3′-(2-(1-methylhexahydropyrrolo[3,4-b]pyrrol-5(1H)-yl)pyridin-4-yl)-[1,1′-biphenyl]-4-yl)-3-methyl-1H-imidazol-2(3H)-one]
0.01 to 1	30 to 300	COCCCn1cc(-c2cc(F)cc(-c3ccc(-n4ccn(C)c4=O)c(Cl)c3)c2O)cc(N2CCN[C@H](C)C2)c1=O [Example 660, (R)-5-(3′-chloro-5-fluoro-2-hydroxy-4′-(3-methyl-2-oxo-2,3-dihydro-1H-imidazol-1-yl)-[1,1′-biphenyl]-3-yl)-1-(3-methoxypropyl)-3-(3-methylpiperazin-1-yl)pyridin-2(1H)-one]
0.01 to 1	0.3 to 30	CC(C)N1CCN(c2cc(-c3cc(F)cc(-c4ccc(-n5ccn(C)c5=O)c(Cl)c4)c3O)cn(C)c2=O)CC1 [Example 661, 5-(3′-chloro-5-fluoro-2-hydroxy-4′-(3-methyl-2-oxo-2,3-dihydro-1H-imidazol-1-yl)-[1,1′-biphenyl]-3-yl)-3-(4-isopropylpiperazin-1-yl)-1-methylpyridin-2(1H)-one]
0.01 to 1	30 to 300	Cn1ccn(-c2ccc(-c3cc(F)cc(-c4ccnc(N5CCNCCC5=O)c4)c3O)cc2Cl)c1=O [Example 665, 4-(4-(3′-chloro-5-fluoro-2-hydroxy-4′-(3-methyl-2-oxo-2,3-dihydro-1H-imidazol-1-yl)-[1,1′-biphenyl]-3-yl)pyridin-2-yl)-1,4-diazepan-5-one]
0.01 to 1	0.3 to 30	COC[C@@H]1CN(c2cc(-c3cc(F)cc(-c4ccc(-n5ccn(C)c5=O)c(Cl)c4)c3O)ccn2)CCN1 [Example 666, (S)-1-(3-chloro-5′-fluoro-2′-hydroxy-3′-(2-(3-(methoxymethyl)piperazin-1-yl)pyridin-4-yl)-[1,1′-biphenyl]-4-yl)-3-methyl-1H-imidazol-2(3H)-one]
0.01 to 1	0.3 to 30	CC(C)[C@@H]1CN(c2cc(-c3cc(F)cc(-c4ccc(-n5ccn(C)c5=O)c(Cl)c4)c3O)ccn2)CCN1 [Example 667, (R)-1-(3-chloro-5′-fluoro-2′-hydroxy-3′-(2-(3-isopropylpiperazin-1-yl)pyridin-4-yl)-[1,1′-biphenyl]-4-yl)-3-methyl-1H-imidazol-2(3H)-one]
0.01 to 1	0.3 to 30	Cn1cc(-c2cc(F)cc(-c3ccc(-n4ccn(C)c4=O)c(Cl)c3)c2O)cc(N2CCN(C(C)(C)C)CC2)c1=O [Example 668, 3-(4-(tert-butyl)piperazin-1-yl)-5-(3′-chloro-5-fluoro-2-hydroxy-4′-(3-methyl-2-oxo-2,3-dihydro-1H-imidazol-1-yl)-[1,1′-biphenyl]-3-yl)-1-methylpyridin-2(1H)-one]
0.01 to 1	0.3 to 30	C[C@@H]1CN(c2cccc(-c3cc(F)cc(-c4ccc(-n5ccn(C)c5=O)c(Cl)c4)c3O)c2)CCN1 [Example 671, (R)-1-(3-chloro-5′-fluoro-2′-hydroxy-3″-(3-methylpiperazin-1-yl)-[1,1′:3′,1″-terphenyl]-4-yl)-3-methyl-1H-imidazol-2(3H)-one]

Second part, the molecule before the results:

Compound	IC50 [1] [nM]	GI50 [2] [nM]
Cn1ccn(-c2ccc(-c3cc(F)cc(-c4ccnc(N5CC6NCCOC6C5)c4)c3O)cc2Cl)c1=O (stereo not drawn) [Example 648, 1-(3-chloro-5′-fluoro-3′-(2-(hexahydropyrrolo[3,4-b][1,4]oxazin-6(2H)-yl)pyridin-4-yl)-2′-hydroxy-[1,1′-biphenyl]-4-yl)-3-methyl-1H-imidazol-2(3H)-one]	0.01 to 1	0.3 to 30
CN1CCOC2CN(c3cc(-c4cc(F)cc(-c5ccc(-n6ccn(C)c6=O)c(Cl)c5)c4O)ccn3)CC21 (stereo not drawn) [Example 649, 1-(3-chloro-5′-fluoro-2′-hydroxy-3′-(2-(4-methylhexahydropyrrolo[3,4-b][1,4]oxazin-6(2H)-yl)pyridin-4-yl)-[1,1′-biphenyl]-4-yl)-3-methyl-1H-imidazol-2(3H)-one]	1 to 10	30 to 300
Cn1ccn(-c2ccc(-c3cc(F)cc(-c4ccnc(N5CCN(CC(C)(C)C)CC5)c4)c3O)cc2Cl)c1=O [Example 651, 1-(3-chloro-5′-fluoro-2′-hydroxy-3′-(2-(4-neopentylpiperazin-1-yl)pyridin-4-yl)-[1,1′-biphenyl]-4-yl)-3-methyl-1H-imidazol-2(3H)-one]	0.01 to 1	30 to 300
Cn1ccn(-c2ccc(-c3cc(F)cc(-c4ccnc(N5CCN(CC(C)(C)C#N)CC5)c4)c3O)cc2Cl)c1=O [Example 652, 3-(4-(4-(3′-chloro-5-fluoro-2-hydroxy-4′-(3-methyl-2-oxo-2,3-dihydro-1H-imidazol-1-yl)-[1,1′-biphenyl]-3-yl)pyridin-2-yl)piperazin-1-yl)-2,2-dimethylpropanenitrile]	0.01 to 1	30 to 300
Cn1ccn(-c2ccc(-c3cc(F)cc(-c4ccnc(C5CCCNC5)c4)c3O)cc2Cl)c1=O (stereo not drawn) [Example 654, 1-(3-chloro-5′-fluoro-2′-hydroxy-3′-(2-(piperidin-3-yl)pyridin-4-yl)-[1,1′-biphenyl]-4-yl)-3-methyl-1H-imidazol-2(3H)-one]	0.01 to 1	0.3 to 30
Cn1ccn(-c2ccc(-c3cc(F)cc(-c4ccnc(N5CC6CNC6C5)c4)c3O)cc2Cl)c1=O (stereo not drawn) [Example 656, 1-(3′-(2-(3,6-diazabicyclo[3.2.0]heptan-3-yl)pyridin-4-yl)-3-chloro-5′-fluoro-2′-hydroxy-[1,1′-biphenyl]-4-yl)-3-methyl-1H-imidazol-2(3H)-one]	0.01 to 1	0.3 to 30
Cn1ccn(-c2ccc(-c3cc(F)cc(-c4ccnc(C5=CCCNC5)c4)c3O)cc2Cl)c1=O [Example 657, 1-(3-chloro-5′-fluoro-2′-hydroxy-3′-(1′,2′,5′,6′-tetrahydro-[2,3′-bipyridin]-4-yl)-[1,1′-biphenyl]-4-yl)-3-methyl-1H-imidazol-2(3H)-one]	0.01 to 1	0.3 to 30
CN1CC2CN(c3cc(-c4cc(F)cc(-c5ccc(-n6ccn(C)c6=O)c(Cl)c5)c4O)ccn3)CC21 (stereo not drawn) [Example 659, 1-(3-chloro-5′-fluoro-2′-hydroxy-3′-(2-(6-methyl-3,6-diazabicyclo[3.2.0]heptan-3-yl)pyridin-4-yl)-[1,1′-biphenyl]-4-yl)-3-methyl-1H-imidazol-2(3H)-one]	0.01 to 1	0.3 to 30
Cn1ccn(-c2ccc(-c3cc(F)cc(-c4ccnc(N5CCN(C67CC(C6)C7)CC5)c4)c3O)cc2Cl)c1=O [Example 662, 1-(3′-(2-(4-(bicyclo[1.1.1]pentan-1-yl)piperazin-1-yl)pyridin-4-yl)-3-chloro-5′-fluoro-2′-hydroxy-[1,1′-biphenyl]-4-yl)-3-methyl-1H-imidazol-2(3H)-one]	1 to 10	30 to 300
CC(C)N1CCN(c2cncc(-c3cc(F)cc(-c4ccc(-n5ccn(C)c5=O)c(Cl)c4)c3O)c2)CC1 [Example 663, 1-(3-chloro-5′-fluoro-2′-hydroxy-3′-(5-(4-isopropylpiperazin-1-yl)pyridin-3-yl)-[1,1′-biphenyl]-4-yl)-3-methyl-1H-imidazol-2(3H)-one]	0.01 to 1	0.3 to 30
Cn1ccn(-c2ccc(-c3cc(F)cc(-c4cncc(N5CCN(C(C)(C)C)CC5)c4)c3O)cc2Cl)c1=O [Example 664, 1-(3′-(5-(4-(tert-butyl)piperazin-1-yl)pyridin-3-yl)-3-chloro-5′-fluoro-2′-hydroxy-[1,1′-biphenyl]-4-yl)-3-methyl-1H-imidazol-2(3H)-one]	0.01 to 1	0.3 to 30
C#CCN1CCN(c2cc(-c3cc(F)cc(-c4ccc(-n5ccn(C)c5=O)c(Cl)c4)c3O)ccn2)CC1 [Example 669, 1-(3-chloro-5′-fluoro-2′-hydroxy-3′-(2-(4-(prop-2-yn-1-yl)piperazin-1-yl)pyridin-4-yl)-[1,1′-biphenyl]-4-yl)-3-methyl-1H-imidazol-2(3H)-one]	0.01 to 1	30 to 300
CC(C)N1CCN(c2cc(-c3cc(F)cc(-c4ccc(-n5ccn(C)c5=O)c(Cl)c4)c3O)cn3ccnc23)CC1 [Example 670, 1-(3-chloro-5′-fluoro-2′-hydroxy-3′-(8-(4-isopropylpiperazin-1-yl)imidazo[1,2-a]pyridin-6-yl)-[1,1′-biphenyl]-4-yl)-3-methyl-1H-imidazol-2(3H)-one]	0.01 to 1	0.3 to 30
